Columns and labels:
Experiment in all cases: biochemical
Parameters in all cases: DiscoverX KinomeScan competition binding assay across human kinases; per cent of control at 10 and 100 uM
Details in all cases: competition binding, % of control; read-out: Percent Control (100 uM Levosimendan)
GRK4 = GRK4 (Homo sapiens, UniProt P32298)
Procedure, shortened: (§1)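 Binding is expressed as %control, normalised between positive and negative control signals. The compound (levosimendan) was tested at 10 μM and 100 μM in the DiscoverX KinomeScan competition binding format against human kinases.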

MRCKA = biological target: T1, MRCKA (Homo sapiens, UniProt Q5VT25)
T1 construct: gene CDC42BPA
T1 sequence (Q5VT25 whole entry): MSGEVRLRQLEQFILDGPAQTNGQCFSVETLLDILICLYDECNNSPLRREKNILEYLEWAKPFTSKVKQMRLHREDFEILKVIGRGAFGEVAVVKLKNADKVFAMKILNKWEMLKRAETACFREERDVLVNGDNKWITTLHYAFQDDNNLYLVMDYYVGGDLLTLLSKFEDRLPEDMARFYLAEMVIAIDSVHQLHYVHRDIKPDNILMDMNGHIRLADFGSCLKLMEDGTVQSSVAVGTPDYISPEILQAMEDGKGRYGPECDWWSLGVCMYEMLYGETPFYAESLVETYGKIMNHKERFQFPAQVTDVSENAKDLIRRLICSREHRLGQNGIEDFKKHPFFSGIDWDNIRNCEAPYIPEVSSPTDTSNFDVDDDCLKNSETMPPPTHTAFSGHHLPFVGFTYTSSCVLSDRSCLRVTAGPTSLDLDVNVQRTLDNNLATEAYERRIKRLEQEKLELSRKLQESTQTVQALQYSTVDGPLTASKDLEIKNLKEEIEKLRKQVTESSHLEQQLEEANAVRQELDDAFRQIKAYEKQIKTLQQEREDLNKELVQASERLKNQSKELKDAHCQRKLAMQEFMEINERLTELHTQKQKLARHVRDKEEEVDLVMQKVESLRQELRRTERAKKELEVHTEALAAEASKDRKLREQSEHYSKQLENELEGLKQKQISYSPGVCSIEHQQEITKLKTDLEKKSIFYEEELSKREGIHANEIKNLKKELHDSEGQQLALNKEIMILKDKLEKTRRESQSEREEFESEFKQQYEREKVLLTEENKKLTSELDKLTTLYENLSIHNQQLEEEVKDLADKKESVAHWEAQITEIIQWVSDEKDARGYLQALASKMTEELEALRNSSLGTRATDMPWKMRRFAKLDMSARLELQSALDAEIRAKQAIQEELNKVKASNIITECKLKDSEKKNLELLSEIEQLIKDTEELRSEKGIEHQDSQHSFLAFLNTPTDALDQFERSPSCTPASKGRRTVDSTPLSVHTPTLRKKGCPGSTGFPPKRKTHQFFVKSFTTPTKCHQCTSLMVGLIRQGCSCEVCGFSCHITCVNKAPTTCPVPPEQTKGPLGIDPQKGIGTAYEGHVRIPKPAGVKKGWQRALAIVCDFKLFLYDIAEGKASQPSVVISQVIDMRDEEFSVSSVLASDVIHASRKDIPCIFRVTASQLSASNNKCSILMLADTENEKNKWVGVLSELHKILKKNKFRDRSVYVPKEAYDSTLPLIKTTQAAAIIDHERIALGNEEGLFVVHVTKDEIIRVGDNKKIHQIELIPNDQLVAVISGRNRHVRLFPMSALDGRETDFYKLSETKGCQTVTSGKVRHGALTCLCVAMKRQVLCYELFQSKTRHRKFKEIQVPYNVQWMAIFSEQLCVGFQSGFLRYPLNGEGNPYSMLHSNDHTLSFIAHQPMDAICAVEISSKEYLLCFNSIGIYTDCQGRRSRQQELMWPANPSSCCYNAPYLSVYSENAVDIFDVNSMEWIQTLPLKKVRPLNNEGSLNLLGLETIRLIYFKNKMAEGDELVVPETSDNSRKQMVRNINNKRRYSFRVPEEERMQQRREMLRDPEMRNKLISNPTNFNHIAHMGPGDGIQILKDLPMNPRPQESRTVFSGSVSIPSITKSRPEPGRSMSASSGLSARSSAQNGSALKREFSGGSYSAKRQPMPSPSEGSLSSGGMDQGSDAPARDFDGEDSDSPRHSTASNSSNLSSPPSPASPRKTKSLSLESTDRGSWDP
Procedure, shortened: as §1

MKNK1 = MKNK1 (Homo sapiens, UniProt Q9BUB5)
Procedure, shortened: as §1

CAMK2G = CAMK2G (Homo sapiens, UniProt Q13555)
Procedure, shortened: as §1

TRKC = biological target: T2, TRKC (Homo sapiens, UniProt Q16288)
T2 construct: gene NTRK3
Procedure, shortened: as §1

WNK2 = WNK2 (Homo sapiens, UniProt Q9Y3S1)
Procedure, shortened: as §1

TXK = TXK (Homo sapiens, UniProt P42681)
Procedure, shortened: as §1

QSK = biological target: T3, QSK (Homo sapiens, UniProt Q9Y2K2)
T3 construct: gene SIK3
T3 sequence (Q9Y2K2 whole entry): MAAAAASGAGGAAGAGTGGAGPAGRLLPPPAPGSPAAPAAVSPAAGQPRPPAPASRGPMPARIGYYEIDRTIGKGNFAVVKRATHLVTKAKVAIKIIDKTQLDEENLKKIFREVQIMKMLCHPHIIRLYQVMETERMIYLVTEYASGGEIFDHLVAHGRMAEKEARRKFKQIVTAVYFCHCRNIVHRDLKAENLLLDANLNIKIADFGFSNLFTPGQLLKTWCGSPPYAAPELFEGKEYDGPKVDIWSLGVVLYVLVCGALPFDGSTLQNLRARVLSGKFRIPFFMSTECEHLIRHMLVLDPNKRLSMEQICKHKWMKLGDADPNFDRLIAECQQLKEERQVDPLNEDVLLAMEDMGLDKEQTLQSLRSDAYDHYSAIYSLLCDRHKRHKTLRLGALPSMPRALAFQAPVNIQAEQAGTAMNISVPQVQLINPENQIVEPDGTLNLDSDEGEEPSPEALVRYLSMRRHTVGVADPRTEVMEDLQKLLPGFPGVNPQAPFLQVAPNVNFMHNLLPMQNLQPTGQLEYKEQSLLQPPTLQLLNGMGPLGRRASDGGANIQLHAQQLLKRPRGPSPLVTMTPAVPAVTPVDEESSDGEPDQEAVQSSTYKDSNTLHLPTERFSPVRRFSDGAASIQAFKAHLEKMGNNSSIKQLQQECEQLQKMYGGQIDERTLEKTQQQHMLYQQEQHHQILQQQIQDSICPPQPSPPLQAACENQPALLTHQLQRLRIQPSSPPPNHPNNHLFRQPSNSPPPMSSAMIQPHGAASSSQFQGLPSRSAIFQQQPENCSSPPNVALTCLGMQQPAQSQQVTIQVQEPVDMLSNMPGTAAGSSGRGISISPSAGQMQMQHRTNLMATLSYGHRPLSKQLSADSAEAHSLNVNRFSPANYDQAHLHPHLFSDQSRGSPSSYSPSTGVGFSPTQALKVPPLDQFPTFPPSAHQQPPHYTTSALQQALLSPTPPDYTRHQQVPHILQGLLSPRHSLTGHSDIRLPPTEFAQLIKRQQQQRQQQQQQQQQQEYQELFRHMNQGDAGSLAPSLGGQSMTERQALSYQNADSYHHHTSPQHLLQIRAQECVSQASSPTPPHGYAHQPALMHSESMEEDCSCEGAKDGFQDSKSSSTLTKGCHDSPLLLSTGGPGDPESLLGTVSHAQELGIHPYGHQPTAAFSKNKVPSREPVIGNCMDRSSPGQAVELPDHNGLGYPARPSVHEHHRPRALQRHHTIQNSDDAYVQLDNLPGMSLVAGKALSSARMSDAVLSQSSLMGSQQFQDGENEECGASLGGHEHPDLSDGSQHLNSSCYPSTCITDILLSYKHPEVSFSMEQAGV
Procedure, shortened: as §1

[1] = biological target: T4, RPS6KA5(Kin.Dom.2-C-terminal) (Homo sapiens, UniProt O75582)
T4 construct: Kin.Dom.2-C-terminal
T4 sequence (O75582 whole entry): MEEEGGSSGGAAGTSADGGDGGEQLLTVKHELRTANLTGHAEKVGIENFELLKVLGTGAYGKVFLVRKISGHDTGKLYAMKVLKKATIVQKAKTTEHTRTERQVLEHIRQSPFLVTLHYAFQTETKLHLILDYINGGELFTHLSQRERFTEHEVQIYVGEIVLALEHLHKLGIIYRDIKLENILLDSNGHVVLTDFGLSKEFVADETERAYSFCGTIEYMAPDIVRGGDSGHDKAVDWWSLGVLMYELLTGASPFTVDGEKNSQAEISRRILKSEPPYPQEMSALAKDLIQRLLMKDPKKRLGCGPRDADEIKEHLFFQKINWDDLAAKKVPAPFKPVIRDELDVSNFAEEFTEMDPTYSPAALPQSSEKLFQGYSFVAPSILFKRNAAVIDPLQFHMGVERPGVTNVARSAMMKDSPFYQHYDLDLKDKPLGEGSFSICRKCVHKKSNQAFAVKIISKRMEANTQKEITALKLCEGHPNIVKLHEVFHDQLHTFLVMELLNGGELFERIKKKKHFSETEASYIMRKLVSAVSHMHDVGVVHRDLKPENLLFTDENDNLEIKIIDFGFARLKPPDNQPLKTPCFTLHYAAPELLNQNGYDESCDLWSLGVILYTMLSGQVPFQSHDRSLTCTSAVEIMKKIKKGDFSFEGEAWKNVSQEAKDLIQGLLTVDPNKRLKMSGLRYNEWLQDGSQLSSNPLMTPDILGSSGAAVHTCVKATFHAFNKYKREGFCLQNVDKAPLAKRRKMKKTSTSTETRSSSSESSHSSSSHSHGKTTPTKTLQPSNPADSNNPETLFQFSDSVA
Procedure, shortened: as §1

HPK1 = biological target: T5, HPK1 (Homo sapiens, UniProt Q92918)
T5 construct: gene MAP4K1
T5 sequence (Q92918 whole entry): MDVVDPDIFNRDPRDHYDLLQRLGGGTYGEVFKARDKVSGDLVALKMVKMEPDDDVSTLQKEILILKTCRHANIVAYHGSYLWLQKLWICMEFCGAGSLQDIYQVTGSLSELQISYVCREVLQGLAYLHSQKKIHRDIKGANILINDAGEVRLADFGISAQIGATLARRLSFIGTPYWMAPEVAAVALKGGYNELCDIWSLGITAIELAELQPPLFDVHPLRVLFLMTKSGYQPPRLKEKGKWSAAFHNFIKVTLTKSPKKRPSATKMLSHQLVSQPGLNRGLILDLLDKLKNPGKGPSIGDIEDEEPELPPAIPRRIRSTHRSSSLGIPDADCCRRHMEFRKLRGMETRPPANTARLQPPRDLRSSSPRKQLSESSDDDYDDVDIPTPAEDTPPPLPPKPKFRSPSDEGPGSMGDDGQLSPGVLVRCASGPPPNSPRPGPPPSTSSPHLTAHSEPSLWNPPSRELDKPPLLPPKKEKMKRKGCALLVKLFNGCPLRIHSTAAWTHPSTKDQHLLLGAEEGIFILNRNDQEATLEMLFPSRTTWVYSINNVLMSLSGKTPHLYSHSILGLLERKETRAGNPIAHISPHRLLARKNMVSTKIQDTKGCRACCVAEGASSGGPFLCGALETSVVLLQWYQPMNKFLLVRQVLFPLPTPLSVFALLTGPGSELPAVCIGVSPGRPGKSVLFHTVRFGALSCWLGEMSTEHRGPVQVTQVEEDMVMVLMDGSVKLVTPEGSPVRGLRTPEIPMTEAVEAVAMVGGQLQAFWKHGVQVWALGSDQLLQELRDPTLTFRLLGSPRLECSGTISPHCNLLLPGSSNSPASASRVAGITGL
Procedure, shortened: as §1

PIK3CA(E545A) = PIK3CA(E545A) (Homo sapiens, UniProt P42336, E545A)
Procedure, shortened: as §1

LATS1 = LATS1 (Homo sapiens, UniProt O95835)
Procedure, shortened: as §1

MLK2 = biological target: T6, MLK2 (Homo sapiens, UniProt Q02779)
T6 construct: gene MAP3K10
Procedure, shortened: as §1

NIK = biological target: T7, NIK (Homo sapiens, UniProt Q99558)
T7 construct: gene MAP3K14
Procedure, shortened: as §1

PKAC-alpha = biological target: T8, PKAC-alpha (Homo sapiens, UniProt P17612)
T8 construct: gene PRKACA
Procedure, shortened: as §1

IRAK1 = IRAK1 (Homo sapiens, UniProt P51617)
Procedure, shortened: as §1

MEK6 = biological target: T9, MEK6 (Homo sapiens, UniProt P52564)
T9 construct: gene MAP2K6
T9 sequence (P52564 whole entry): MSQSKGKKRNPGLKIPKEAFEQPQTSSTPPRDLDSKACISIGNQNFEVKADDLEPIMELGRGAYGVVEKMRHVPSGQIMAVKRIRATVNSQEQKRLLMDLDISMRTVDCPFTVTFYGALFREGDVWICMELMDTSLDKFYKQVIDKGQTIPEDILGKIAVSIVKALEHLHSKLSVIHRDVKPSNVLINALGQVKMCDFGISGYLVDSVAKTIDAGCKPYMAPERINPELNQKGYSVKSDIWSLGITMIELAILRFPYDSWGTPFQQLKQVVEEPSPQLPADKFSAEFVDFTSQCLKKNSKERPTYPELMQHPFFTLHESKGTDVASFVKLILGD
Procedure, shortened: as §1

LYN = LYN (Homo sapiens, UniProt P07948)
Procedure, shortened: as §1

EPHA2 = EPHA2 (Homo sapiens, UniProt P29317)
Procedure, shortened: as §1

C[C@@H]1CC(=O)NN=C1c1ccc(NN=C(C#N)C#N)cc1 [levosimendan]
remaining binding at 100 µM (GRK4): 100% | remaining binding at 100 µM (MRCKA): 90% | remaining binding at 100 µM (MKNK1): 65% | remaining binding at 100 µM (CAMK2G): 88% | remaining binding at 100 µM (TRKC): 65% | remaining binding at 100 µM (WNK2): 98% | remaining binding at 100 µM (TXK): 60% | remaining binding at 100 µM (QSK): 82% | remaining binding at 100 µM [1]: 100% | remaining binding at 100 µM (HPK1): 95% | remaining binding at 100 µM (PIK3CA(E545A)): 68% | remaining binding at 100 µM (LATS1): 100% | remaining binding at 100 µM (MLK2): 81% | remaining binding at 100 µM (NIK): 83% | remaining binding at 100 µM (PKAC-alpha): 94% | remaining binding at 100 µM (IRAK1): 61% | remaining binding at 100 µM (MEK6): 100% | remaining binding at 100 µM (LYN): 69% | remaining binding at 100 µM (EPHA2): 76%
